Laboratory results published in ChEMBL document CHEMBL1201862, “PubChem BioAssay data set” (2004).
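Five compound concentrations were applied to cells in 96-well plates for 48 hours; endpoints were derived by simple linear interpolation of the resulting dose-response curve. GI50: concentration for 50% inhibition of growth.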 Calls of active or inactive are those of the source. Cut-off read from the data, not from the text of the source: active = GI50 up to about 1.1 µM and inactive = higher.

Columns and labels:
Assay in all cases: NCI anticancer screen, dose series, 48 h
A549 = test system: A549
CAKI-1 = test system: CAKI-1
HCC 2998 = test system: HCC 2998
HL-60 = test system: HL-60
HOP-62 = test system: HOP-62
HOP-92 = test system: HOP-92
HT-29 = test system: HT-29
M14 = test system: M14
MDA-MB-231 = test system: MDA-MB-231
MDA-MB-435 = test system: MDA-MB-435
MDA-N = test system: MDA-N
NCI-H460 = test system: NCI-H460
NCI-H522 = test system: NCI-H522
OVCAR-3 = test system: OVCAR-3
SF-268 = test system: SF-268
SF-539 = test system: SF-539
SK-MEL-2 = test system: SK-MEL-2
SK-MEL-5 = test system: SK-MEL-5
SNB-75 = test system: SNB-75
UACC-257 = test system: UACC-257

CC(CCC#N)(CCC#N)C(=O)CC(O)(C(F)(F)F)C(F)(F)F
GI50 (A549): 10.1 µM (inactive)
GI50 (CAKI-1): 4.09 µM (inactive)
GI50 (HCC 2998): 17 µM (inactive)
GI50 (HL-60): 0.817 µM (active)
GI50 (HOP-62): 19.8 µM (inactive)
GI50 (HOP-92): 4.86 µM (inactive)
GI50 (HT-29): 6.65 µM (inactive)
GI50 (M14): 2.1 µM (inactive)
GI50 (MDA-MB-231): 4.06 µM (inactive)
GI50 (MDA-MB-435): 5.6 µM (inactive)
GI50 (MDA-N): 1.73 µM (inactive)
GI50 (NCI-H460): 16.6 µM (inactive)
GI50 (NCI-H522): 1.85 µM (inactive)
GI50 (OVCAR-3): 2.76 µM (inactive)
GI50 (SF-268): 7.89 µM (inactive)
GI50 (SF-539): 3.44 µM (inactive)
GI50 (SK-MEL-2): 33.7 µM (inactive)
GI50 (SK-MEL-5): 13.3 µM (inactive)
GI50 (SNB-75): 14.9 µM (inactive)
GI50 (UACC-257): 6.41 µM (inactive)

Cc1ccc(O)c(C(=O)/C=C/c2ccccc2)c1
GI50 (A549): > 100 µM (inactive)
GI50 (CAKI-1): > 100 µM (inactive)
GI50 (HCC 2998): > 100 µM (inactive)
GI50 (HL-60): 23.1 µM (inactive)
GI50 (HOP-62): > 100 µM (inactive)
GI50 (HOP-92): > 100 µM (inactive)
GI50 (HT-29): > 100 µM (inactive)
GI50 (M14): > 100 µM (inactive)
GI50 (MDA-MB-231): > 100 µM (inactive)
GI50 (MDA-MB-435): > 100 µM (inactive)
GI50 (MDA-N): > 100 µM (inactive)
GI50 (NCI-H460): > 100 µM (inactive)
GI50 (NCI-H522): 5.81 µM (inactive)
GI50 (OVCAR-3): > 100 µM (inactive)
GI50 (SF-268): > 100 µM (inactive)
GI50 (SF-539): > 100 µM (inactive)
GI50 (SK-MEL-2): > 100 µM (inactive)
GI50 (SK-MEL-5): > 100 µM (inactive)
GI50 (SNB-75): 49 µM (inactive)
GI50 (UACC-257): > 100 µM (inactive)

COc1ccc(/C=C/C(=O)N[C@@H]2C(=O)N3[C@@H]2SC(C)(C)[C@@H]3C(=O)O)cc1OC
GI50 (A549): > 100 µM (inactive)
GI50 (CAKI-1): > 100 µM (inactive)
GI50 (HCC 2998): > 100 µM (inactive)
GI50 (HL-60): > 100 µM (inactive)
GI50 (HOP-62): > 100 µM (inactive)
GI50 (HOP-92): > 100 µM (inactive)
GI50 (HT-29): > 100 µM (inactive)
GI50 (M14): > 100 µM (inactive)
GI50 (MDA-MB-231): > 100 µM (inactive)
GI50 (MDA-MB-435): > 100 µM (inactive)
GI50 (MDA-N): > 100 µM (inactive)
GI50 (NCI-H460): > 100 µM (inactive)
GI50 (NCI-H522): 85.5 µM (inactive)
GI50 (OVCAR-3): > 100 µM (inactive)
GI50 (SF-268): > 100 µM (inactive)
GI50 (SF-539): > 100 µM (inactive)
GI50 (SK-MEL-2): > 100 µM (inactive)
GI50 (SK-MEL-5): > 100 µM (inactive)
GI50 (SNB-75): > 100 µM (inactive)
GI50 (UACC-257): > 100 µM (inactive)

COC(O)C12OC3CO[Si](C(C)C)(C(C)C)O[Si](C(C)C)(C(C)C)OC3C1Oc1nc(=O)ccn12 (stereo not given)
GI50 (A549): 12.6 µM (inactive)
GI50 (CAKI-1): 18.2 µM (inactive)
GI50 (HCC 2998): 3.94 µM (inactive)
GI50 (HL-60): 3.29 µM (inactive)
GI50 (HOP-62): 13.7 µM (inactive)
GI50 (HOP-92): 10.1 µM (inactive)
GI50 (HT-29): 6.73 µM (inactive)
GI50 (M14): 12.7 µM (inactive)
GI50 (MDA-MB-231): 17.1 µM (inactive)
GI50 (MDA-MB-435): 12.3 µM (inactive)
GI50 (MDA-N): 12.8 µM (inactive)
GI50 (NCI-H460): 11.3 µM (inactive)
GI50 (NCI-H522): 4.88 µM (inactive)
GI50 (OVCAR-3): 11.3 µM (inactive)
GI50 (SF-268): 9.91 µM (inactive)
GI50 (SF-539): 15.7 µM (inactive)
GI50 (SK-MEL-2): 12 µM (inactive)
GI50 (SK-MEL-5): 7.87 µM (inactive)
GI50 (SNB-75): 26.2 µM (inactive)
GI50 (UACC-257): 11.8 µM (inactive)

Nc1ccc2c(SCC(=O)Nc3ccccc3-c3ccccc3NC(=O)CSc3c4ccccc4nc4cc(N)ccc34)c3ccccc3nc2c1
GI50 (A549): 41 µM (inactive)
GI50 (CAKI-1): 45.5 µM (inactive)
GI50 (HCC 2998): 36.1 µM (inactive)
GI50 (HL-60): 3.21 µM (inactive)
GI50 (HOP-62): 33.7 µM (inactive)
GI50 (HOP-92): 43.5 µM (inactive)
GI50 (HT-29): 29.6 µM (inactive)
GI50 (M14): 24.4 µM (inactive)
GI50 (MDA-MB-231): > 50.4 µM (inactive)
GI50 (MDA-MB-435): 22.1 µM (inactive)
GI50 (MDA-N): 44.5 µM (inactive)
GI50 (NCI-H460): 29.2 µM (inactive)
GI50 (NCI-H522): 6.52 µM (inactive)
GI50 (OVCAR-3): 22.2 µM (inactive)
GI50 (SF-268): 37.1 µM (inactive)
GI50 (SF-539): 32.1 µM (inactive)
GI50 (SK-MEL-2): 25.6 µM (inactive)
GI50 (SK-MEL-5): 14.6 µM (inactive)
GI50 (SNB-75): 38.5 µM (inactive)
GI50 (UACC-257): 24.4 µM (inactive)
